# Data: article PMC6154642 (Molecules : A Journal of Synthetic Chemistry and Natural …, 2017)
# Where two headings read alike, the source gives them in different places.
# Assays:
# A549 cells = assay: Flow cytometric analysis of cell cycle arrest (PI staining); type: cell-based, human; details: 20 μM, 24 h, versus control (55.75%)
# Description: Cells were seeded in six-well tissue culture plates (1 × 10^5 cells per well), and the cell cycle arrest was analyzed by flow cytometry as previously described. […] The fixed cells were washed with PBS and stained with propidium iodide (PI) for 15 min in the dark, then the cell cycle arrest was analyzed with an Epics XL-MCL flow cytometer (Beckman Coulter, Miami, FL, USA).
# [1] = system: 5'-FAM-bcl-2-TAMRA-3' (DNA, G4) CGGGCGCGGGAGGAAGGGGGCGGGAGC; assay: FRET melting; details: Tris-HCl buffer; 6.0 μM compound (2.4 °C at 3.0 μM); 1 μM DNA (0.2 μM in Figure 4 legend)
# bcl-2 G4 DNA [2] = assay: FRET melting assay; type: binding
# Description: The fluorescent labeled oligonucleotide, bcl-2 G-quadruplex DNA (5′-FAM-[…]-TAMRA-3′, FAM: carboxyfluorescein, TAMRA: 6-carboxy tetramethylrhodamine) used as the FRET probe was diluted in TrisHCl buffer and then annealed by being heated to 90 °C for 5 min, followed by slowly cooling to room temperature. Ds26 duplex DNA ([…]) was competitive binders to evaluate the selective binding ability of 1 with bcl-2 G4 DNA. Fluorescence melting curves were determined with a Bio-RadiQ5 realtime PCR detection system (Bio-Rad, Berkeley, CA, USA), by using a total reaction volume of […], with labeled oligonucleotide (1 μM) and different concentrations of complex in Tris-HCl buffer. A constant temperature was maintained for 30 s prior to each reading to ensure a stable value. Final analysis of the data was carried out by using Origin7.5 (Origin Lab, Northampton, MA, USA).
# [3] = system: bcl-2 G-quadruplex DNA (bcl-2 G4 DNA) (DNA, G4) CGGGCGCGGGAGGAAGGGGGCGGGAGC; assay: ethidium bromide displacement fluorescence; details: K+ (KCl, concentration not given); Tris-HCl KCl pH 7.2; EB 16 μM, DNA 2 μM; I/I0 0.83 at 20.89 μM compound
# [4] = system: human lung adenocarcinoma A549 cells; assay: MTT assay, growth inhibition of A549 cells; type: cell-based
# Description: (§1) Human cancer cell lines, human lung adenocarcinoma A549 cells, human hepatocarcinoma SMMC7721 cells, human colorectal carcinoma SW620 cells and HaCaT cells were purchased from American Type Culture Collection (ATCC, Manassas, VA, USA). All cell lines were maintained in Dulbecco’s Modified Eagle Medium (DMEM) media supplemented with fetal bovine serum (10%), penicillin (100 units/mL), and streptomycin (50 units/mL) at 37 °C in a CO2 incubator (95% relative humidity, 5% CO2).
# (§2) Cell viability was confirmed by measuring the ability of cells to transform 3-(4,5-dimethylthia-zol-2-yl)-2,5-diphenyltetrazolium bromide (MTT) to a purple formazan dye. Cells were seeded in 96-well tissue culture plates (3 × 10^3 cells per well) for 24 h. The cells were then incubated with the tested compounds at different concentrations for 72 h. After incubation, 20 µL per well of MTT solution (5 mg/mL in phosphate buffered saline, PBS) was added, followed by incubation for a further 5 h. The medium was aspirated and replaced with 150 µL/well of DMSO to dissolve the formazan salt formed. The colour intensity, which reflects the cell growth condition, was measured at 570 nm using a microplate spectrophotometer (SpectroAmaxTM250, BioTek Instruments, Inc., Winooski, VT, USA).
# bcl-2 G-quadruplex DNA = assay: Electronic absorption titration with bcl-2 G-quadruplex DNA; type: binding
# Description: (§3) All reagents were purchased from commercial suppliers and used without further purification. Solvents were dried and purified by conventional methods prior to use. Distilled water was used in all experiments. Bcl-2 G-quadruplex DNA (5′-[…]-3′) and 5′-FAM-bcl-2-TAMRA-3′ were purchased from Sangon Biotech Co., Ltd. (Shanghai, China) Bcl-2 G-quadruplex DNA formed a G-quadruplex conformation as literature by renaturation for 24 h at 4 °C, after denaturation for 5 min at 90 °C [29]. All aqueous solutions were prepared with doubly distilled water. The Tris-HCl buffer consisting of Tris and KCl, and the pH value was adjusted to 7.2 by HCl solution, which was applied to UV titration, Fluorescence emission titrations.
# Electronic absorption spectra were recorded on a Shimadzu UV-2550 spectrophotometer using 1 cm path length quartz cuvettes (3 mL). The absorption titration of the target complex in Tris-HCl buffer was performed by using a fixed complex concentration to which increments of the DNA stock solution were added. The concentration of the complex solution was 20 μM and bcl-2 G4 DNA was added by degrees. Complex-DNA solutions were allowed to incubate for 3 min before the absorption spectra were recorded.
# bcl-2 G4 DNA [5] = assay: Fluorescence quenching of EB + bcl-2 G4 DNA system; type: binding; details: [1] = 20.89 μM, [EB] = 16 μM, [DNA] = 2 μM, excitation 350 nm, Tris-HCl KCl buffer pH 7.2
# Description: as §3
# Fluorescence spectroscopy measurements were performed on a RF-5301 fluorescence spectrophotometer using a 1 cm path length quartz cell. Fluorescence quenching of the EB + bcl-2 G4 DNA system can be used for a compound having an affinity to DNA in spite of its binding mode, and only measures the ability of the compound to affect the EB fluorescence intensities in the EB + bcl-2 G4 DNA system. The titration processes were repeated until there was no apparent change in the spectra for at least three titrations, indicating the achievement of the binding saturation.
# [6] = system: human colorectal carcinoma SW620 cells; assay: MTT assay, growth inhibition of SW620 cells; type: cell-based
# Description: as §1, §2
# [7] = system: bcl-2 G-quadruplex DNA (bcl-2 G4 DNA) (DNA, G4) CGGGCGCGGGAGGAAGGGGGCGGGAGC; assay: UV-vis absorption titration; details: K+ (KCl, concentration not given); Tris-HCl pH 7.2; fixed 20 μM compound (60 μM in Figure 3 legend); intrinsic binding constant
# [8] = system: human hepatocarcinoma SMMC7721 cells; assay: MTT assay, growth inhibition of SMMC7721 cells; type: cell-based
# Description: as §1, §2
# HaCaT cells = assay: MTT assay, normal HaCaT cells; type: cell-based, human; details: 72 h; for IC50: normal cells
# Description: as §1, §2
structure (smiles),measurement,setting,value
O=[N+]([O-])c1cccc(-c2nc3c4cccnc4c4ncccc4c3[nH]2)c1 [Compound 1],ratio of G1-phase higher than that of the control,A549 cells,about 12%
same,ΔTm,[1],~ 11 °C
same,ΔTm of bcl-2 G4 DNA,bcl-2 G4 DNA [2]; 3.0 μM compound,about 2.4 °C
same,ΔTm of bcl-2 G4 DNA,bcl-2 G4 DNA [2]; 6.0 μM compound,about 11 °C
same,binding,[3],weak
same,IC50,"[4]; Homo sapiens, A549, 72 h",15 ± 1.01 µM
same,hyperchromism at the IL absorption band,"bcl-2 G-quadruplex DNA; Tris-HCl buffer pH 7.2, about 273 nm, on addition of bcl-2 G-quadruplex DNA",about 14.1%
same,bathochromic shift Δλ at the IL absorption band,"bcl-2 G-quadruplex DNA; Tris-HCl buffer pH 7.2, on addition of bcl-2 G-quadruplex DNA",2.1 nm
same,relative fluorescence intensity (I/I0) of EB-DNA,bcl-2 G4 DNA [5],about 0.83
same,IC50,"[6]; Homo sapiens, SW-620, 72 h",26.5 ± 0.59 µM
same,Kb,[7],~ 8.7 × 10^7 M^-1
same,IC50,"[8]; Homo sapiens, SMMC-7721, 72 h",17.5 ± 1.84 µM
same,toxicity in normal cells,HaCaT cells,low toxicity in normal cells
same,IC50,"HaCaT cells; Homo sapiens, HaCaT",27.3 ± 1.49 µM
FC(F)(F)c1cccc(-c2nc3c4cccnc4c4ncccc4c3[nH]2)c1 [Compound 2],IC50,"[4]; Homo sapiens, A549, 72 h",13.8 ± 0.53 µM
same,IC50,"[6]; Homo sapiens, SW-620, 72 h",27.2 ± 0.53 µM
same,IC50,"[8]; Homo sapiens, SMMC-7721, 72 h",12.9 ± 0.51 µM
same,IC50,"HaCaT cells; Homo sapiens, HaCaT",17.5 ± 0.58 µM
Clc1cccc(-c2nc3c4cccnc4c4ncccc4c3[nH]2)c1 [Compound 3],IC50,"[4]; Homo sapiens, A549, 72 h",14.3 ± 0.21 µM
same,IC50,"[6]; Homo sapiens, SW-620, 72 h",16 ± 0.29 µM
same,IC50,"[8]; Homo sapiens, SMMC-7721, 72 h",12.6 ± 0.35 µM
same,IC50,"HaCaT cells; Homo sapiens, HaCaT",13.4 ± 0.56 µM
Oc1cccc(-c2nc3c4cccnc4c4ncccc4c3[nH]2)c1 [Compound 4],IC50,"[4]; Homo sapiens, A549, 72 h",3 ± 0.14 µM
same,IC50,"[6]; Homo sapiens, SW-620, 72 h",16.5 ± 0.28 µM
same,IC50,"[8]; Homo sapiens, SMMC-7721, 72 h",24.2 ± 2.28 µM
same,IC50,"HaCaT cells; Homo sapiens, HaCaT",13.9 ± 0.64 µM
"N.N.[Cl][Pt][Cl] [cis-platin, reference compound]",IC50,[4]; 72 h,32 ± 4.66 µM
same,IC50,[6]; 72 h,6.29 ± 0.17 µM
same,IC50,"[8]; 72 h, read-out: IC50 (μM) SMMC-7721",11.7 ± 1.45 µM
same,IC50,HaCaT cells,18.5 ± 1.64 µM
